Measurements taken from patent US20090022806A1, “Nanoparticle and polymer formulations for thyroid hormone analogs, antagonists and formulations and uses thereof” (priority 2006, published 2009).
Converted amounts (≈) assume the structure as drawn. One block for each molecule: values may come before it.

Key:
Solubility = assay type: physicochemical; details: in water after preparing a solution at 10^−1 M in DMSO
Procedure: Yield: 50%; off-white solid; recrist. solvt.: EtOH; TLC: Rf=0.43 (EtOAc/EtOH 9/1); RPTLC: Rf=0.43 (AcOH/H2O 8/2); mp=136° C.; IR (ν cm^−1): 1730 (CO); ^1H NMR (DMSO-d6) δ (ppm): 7.79 (s, 2H, ArH), 7.14 (s, 2H, ArH), 4.06-4.02 (m, 2H, CH2), 3.93-3.89 (q, J=7.0 Hz, 2H, CH2), 3.59-3.56 (t, J=7.0 Hz, 1H, CH), 2.80-2.77 (m, 2H, CH2), 1.88 (br, 1H, NH), 1.41-1.39 (t, J=7.0 Hz, 3H, CH3), 1.15-1.12 (t, J=7.0 Hz, 3H, CH3); MS (ESI+) m/z 911.7 [(M+DMSO)^+, 100], 833.7 [(M+H)+, 75]; Anal. Calcd. for C19H19I4NO4: C, 27.40; H, 2.30; N, 1.68. Found: C, 27.54; H, 1.94; N, 1.66. Solubility 10^−3 M in water after preparing a solution at 10^−1 M in DMSO. It is noteworthy that if a suspension of L-T4 is prepared overnight, the yield can be increased.

[1] = tested on: doxorubicin-resistant MCF7/R cells; test: Doxorubicin-resistant tumor xenograft in nude mice; details: doxorubicin alone 2 mg/kg, three injections
Procedure: (§1) Strain CD1 nude mice were obtained from Charles River Laboratories (Wilmington, Mass.) at approximately 5-6 weeks of age and weighing approximately 30 g. Animals received s.c. implantation of doxorubicin-resistant MCF7/R cells (10^6 cells in 100 μl). When tumors were approximately 50 mm^3 in size, the animals were pair matched and divided into four groups of five mice as follows: a) vehicle treated controls, b) mice treated with tetrac (30 mg/kg), c) mice treated doxorubicin (2 mg/kg), d) mice treated with the combination of both drugs. A total of three injections (separated by 3 days) were performed. Mice were weighed, checked for clinical signs of drug toxicity and lethality. Tumor measurements were made with a caliper three times weekly for up to 3 weeks and converted to tumor volume by using the formula W×L^2/2. Tumor growth curves were generated.

[2] = Doxorubicin-resistant tumor xenograft in nude mice; details: CD1 nude, mouse, in vivo
Procedure: as §1

NG108-15 cells = test: cells; details: Homo sapiens, NG108-15, read-out: Half maximal inhibition of cell-cell adhesion
[3] = tested on: EC migration toward the extracellular matrix protein vitronectin; test: Cellular migration assay toward vitronectin (chemotaxis chamber); assay type: cell-based; details: Vitronectin 25 ug in lower chamber alone
Procedure: These assays were performed using a Neuroprobe 96 well disposable chemotaxis chamber with an 8 μm pore size. This chamber allowed for quantitation of cellular migration towards a gradient of either vitronectin or osteopontin. Cultured cells were removed following a standardized method using EDTA/Trypsin (0.01%/0.025%). Following removal, the cells were washed twice and resuspended (2×10^6/ml) in EBM (Endothelial cell basal media, Clonetics Inc.). Add either vitronectin or osteopontin (33 μl) at 0.0125-100 μg/ml to the lower wells of a disposable chemotaxis chamber, and then assemble using the preframed filter. The cell suspension (45 μl) was added to a polypropylene plate containing 5 μl of test agent at different concentrations and incubated for 10 minutes at 22° C. Add 25 μl of cell/test agent suspension to the upper filter wells then incubate overnight (22 hours at 37° C.) in a humidified cell culture incubator. After the overnight incubation, non-migrated cells and excess media were gently removed using a 12 channel pipette and a cell scraper. The filters were then washed twice in PBS (no Ca^+2 or Mg^+2) and fixed with 1% formaldehyde. Membranes of migrated cells were permeated with Triton X-100 (0.2%) then washed 2-3 times with PBS. […] Chemotaxis was quantitatively determined by fluorescence detection using a Cytofluor II (530 excitation/590 emission).

Molecule: CC(C)(C)OC(=O)NC(Cc1cc(I)c(Oc2cc(I)c(O)c(I)c2)c(I)c1)C(=O)O (stereo not drawn) [PRIAB1, 2-[(tert-butoxycarbonyl)amino]-3-[4-(4-hydroxy-3,5-diiodophenoxy)-3,5-diiodophenyl]propanoic acid]
melting point: 212 °C

Molecule: CCNC(Cc1cc(I)c(Oc2cc(I)c(O)c(I)c2)c(I)c1)C(=O)OCC (stereo not drawn) [PRIAB20, ethyl-2-(ethylamino)-3-[4-(4-hydroxy-3,5-diiodophenoxy)-3,5-diiodophenyl]propanoate]
solubility (Solubility): 1000 µM (≈ 833 µg/mL)

Molecule: COc1cccc2c1C(=O)c1c(O)c3c(c(O)c1C2=O)C[C@@](O)(C(=O)CO)C[C@@H]3O[C@H]1C[C@H](N)[C@H](O)[C@H](C)O1 [doxorubicin]
effect on tumor growth [1]: no noticeable effect
MTD [2]: 2.5 mg/kg

IC50 (NG108-15 cells): 5 to 10 mM
Molecule: CCO [ethanol]

B1: Vitronectin: extracellular matrix protein used as migration gradient (protein, UniProt P04004 20-478, looked up)
Vitronectin: DQESCKGRCTEGFNVDKKCQCDELCSYYQSCCTDYTAECKPQVTRGDVFTMPEDEYTVYDDGEEKNNATVHEQVGGPSLTSDLQAQSKGNPEQTPVLKPEEEAPAPEVGASKPEGIDSRPETLHPGRPQPPAEEELCSGKPFDAFTDLKNGSLFAFRGQYCYELDEKAVRPGYPKLIRDVWGIEGPIDAAFTRINCQGKTYLFKGSQYWRFEDGVLDPDYPRNISDGFDGIPDNVDAALALPAHSYSGRERVYFFKGKQYWEYQFQHQPSQEECEGSSLSAVFEHFAMMQRDSWEDIFELLFWGRTSAGTRQPQFISRDWHGVPGQVDAAMAGRIYISGMAPRPSLAKKQRFRHRNRKGYRSQRGHSRGRNQNSRRPSRATWLSLFSSEESNLGANNYDDYRMDWLVPATCEPIQSVFFFSGDKYYRVNLRTRRVDTVDPPYPRSIAQYWLGCPAPGHL
Mean EC Migration (Fluorescence Units) + SD [3]: 6,116 ± 185 Fluorescence Units
